From patent publication US10842779B2, “Heterocyclic compounds and their use in preventing or treating bacterial infections” (priority 2015, dated 2020)
Read-outs that look alike come from different tables or passages of the source.

Assays:
[1] = biological target: T1, OXA-15 (Pseudomonas aeruginosa, UniProt Q51574); assay: β-Lactamase inhibitory activity, nitrocefin hydrolysis; type: biochemical
T1 construct: made in house; host or cells: E. coli
Description: (§3) Enzyme activity was monitored by spectrophotometric measurement of nitrocefin (NCF-TOKU-E, N005) hydrolysis at 485 nm, at room temperature and in assay buffer A: 100 mM Phosphate pH7, 2% glycerol and 0.1 mg/mL Bovine serum albumin (Sigma, B4287). Enzymes were cloned in E. coli expression vector, expressed and purified in house using classical procedures. To a transparent polystyrene plate (Corning, 3628) were added in each well 5 μL DMSO or inhibitor dilutions in DMSO and 80 μL enzyme in buffer A. Plates were immediately read at 485 nm in a microplate spectrophotometer (BioTek, PowerWave HT) to enable background subtraction. After 30 min of pre-incubation at room temperature, 15 μL of NCF (200 μM final) were finally added in each well. Final enzyme concentrations were 0.1 nM (TEM-1), 0.075 nM (SHV-1), 0.4 nM (CTX-M-15), 1 nM (KPC-2), 0.2 nM (P99 AmpC), 0.2 nM (CMY-37), 0.4 nM (AmpC P. aeruginosa), 0.2 nM (OXA-1), 1.2 nM (OXA-11), 0.4 nM (OXA-15) and 0.3 nM (OXA-48). After 20 min incubation at room temperature, plates were once again read at 485 nm. Enzyme activity was obtained by subtracting the final signal by the background, and was converted to enzyme inhibition using non inhibited wells. IC50 curves were fitted to a classical Langmuir equilibrium model with Hill slope using XLFIT (IDBS).

[2] = biological target: T2, KPC-2 (Klebsiella pneumoniae, UniProt Q9F663); assay: as above; type: biochemical; conditions: class (A); 30 min pre-incubation
T2 construct: made in house; host or cells: E. coli
T2 sequence (Q9F663 25-293, looked up, species assumed): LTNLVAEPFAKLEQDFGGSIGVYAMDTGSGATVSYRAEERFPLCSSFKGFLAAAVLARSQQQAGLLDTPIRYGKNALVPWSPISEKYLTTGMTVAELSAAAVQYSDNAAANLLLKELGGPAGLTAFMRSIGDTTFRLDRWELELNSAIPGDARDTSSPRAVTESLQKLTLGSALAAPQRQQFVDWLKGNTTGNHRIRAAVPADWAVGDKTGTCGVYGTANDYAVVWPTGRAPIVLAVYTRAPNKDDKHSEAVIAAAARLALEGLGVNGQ
Description: (§4) Enzyme activity was monitored by spectrophotometric measurement of nitrocefin (NCF-TOKU-E, N005) hydrolysis at 485 nm, at room temperature and in assay buffer A: 100 mM Phosphate pH7, 2% glycerol and 0.1 mg/mL Bovine serum albumin (Sigma, B4287). […] To a transparent polystyrene plate (Corning, 3628) were added in each well 5 μL DMSO or inhibitor dilutions in DMSO and 80 μL enzyme in buffer A. Plates were immediately read at 485 nm in a microplate spectrophotometer (BioTek, PowerWave HT) to enable background subtraction. After 30 min of pre-incubation at room temperature, 15 μL of NCF (200 μM final) were finally added in each well. Final enzyme concentrations were 0.1 nM (TEM-1), 0.075 nM (SHV-1), 0.4 nM (CTX-M-15), 1 nM (KPC-2), 0.2 nM (P99 AmpC), 0.2 nM (CMY-37), 0.4 nM (AmpC P. aeruginosa), 0.2 nM (OXA-1), 1.2 nM (OXA-11), 0.4 nM (OXA-15) and 0.3 nM (OXA-48). After 20 min incubation at room temperature, plates were once again read at 485 nm. Enzyme activity was obtained by subtracting the final signal by the background, and was converted to enzyme inhibition using non inhibited wells. IC50 curves were fitted to a classical Langmuir equilibrium model with Hill slope using XLFIT (IDBS).

[3] = biological target: T3, CTX-M-15 (Escherichia coli, UniProt Q9EXV5); assay: as above; type: biochemical; conditions: class (A); 30 min pre-incubation
T3 construct: made in house; host or cells: E. coli
T3 sequence (Q9EXV5 29-291, species assumed): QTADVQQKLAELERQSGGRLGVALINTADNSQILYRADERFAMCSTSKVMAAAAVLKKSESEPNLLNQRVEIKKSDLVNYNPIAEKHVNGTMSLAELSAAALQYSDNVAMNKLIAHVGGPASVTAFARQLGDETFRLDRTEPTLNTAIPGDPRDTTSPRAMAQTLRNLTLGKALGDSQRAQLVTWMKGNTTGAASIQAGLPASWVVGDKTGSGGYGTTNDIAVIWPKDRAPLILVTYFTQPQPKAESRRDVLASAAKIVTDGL
Description: as §3

[4] = biological target: T4, OXA-48 (Klebsiella pneumoniae, UniProt Q6XEC0); assay: as above; type: biochemical; conditions: class (D); 30 min pre-incubation
T4 construct: made in house; host or cells: E. coli
T4 sequence (Q6XEC0 23-265, looked up, species assumed): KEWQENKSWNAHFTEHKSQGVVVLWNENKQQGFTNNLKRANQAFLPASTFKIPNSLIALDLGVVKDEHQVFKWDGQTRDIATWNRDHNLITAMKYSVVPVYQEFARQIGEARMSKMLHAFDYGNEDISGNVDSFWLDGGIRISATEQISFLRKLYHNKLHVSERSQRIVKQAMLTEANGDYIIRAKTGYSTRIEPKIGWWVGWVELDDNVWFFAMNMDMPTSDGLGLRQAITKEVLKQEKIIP
Description: as §3

[5] = biological target: T5, OXA-11 (Pseudomonas aeruginosa, UniProt Q06778); assay: as above; type: biochemical
T5 construct: made in house; host or cells: E. coli
T5 sequence (Q06778 21-266): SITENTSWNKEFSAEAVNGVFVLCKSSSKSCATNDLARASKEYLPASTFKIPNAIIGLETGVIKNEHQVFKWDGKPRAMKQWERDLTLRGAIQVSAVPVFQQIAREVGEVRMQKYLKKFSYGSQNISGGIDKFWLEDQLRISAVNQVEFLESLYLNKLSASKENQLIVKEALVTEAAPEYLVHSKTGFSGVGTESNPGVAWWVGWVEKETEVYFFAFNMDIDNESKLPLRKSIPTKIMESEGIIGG
Description: as §4

[6] = biological target: T6, SHV-1 (Klebsiella pneumoniae, UniProt P0AD64); assay: as above; type: biochemical
T6 construct: made in house; host or cells: E. coli
T6 sequence (P0AD64 22-286): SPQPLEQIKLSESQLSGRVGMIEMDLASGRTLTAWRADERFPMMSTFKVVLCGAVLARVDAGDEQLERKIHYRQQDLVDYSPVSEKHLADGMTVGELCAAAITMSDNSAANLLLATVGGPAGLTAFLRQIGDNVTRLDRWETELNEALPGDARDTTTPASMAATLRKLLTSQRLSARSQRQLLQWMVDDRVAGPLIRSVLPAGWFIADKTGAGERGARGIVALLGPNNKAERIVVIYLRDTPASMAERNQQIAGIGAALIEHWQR
Description: as §3

[7] = biological target: T7, TEM-1 (Escherichia coli, UniProt P62593); assay: as above; type: biochemical; conditions: class (A); 30 min pre-incubation
T7 construct: made in house; host or cells: E. coli
T7 sequence (P62593 24-286 limits assumed): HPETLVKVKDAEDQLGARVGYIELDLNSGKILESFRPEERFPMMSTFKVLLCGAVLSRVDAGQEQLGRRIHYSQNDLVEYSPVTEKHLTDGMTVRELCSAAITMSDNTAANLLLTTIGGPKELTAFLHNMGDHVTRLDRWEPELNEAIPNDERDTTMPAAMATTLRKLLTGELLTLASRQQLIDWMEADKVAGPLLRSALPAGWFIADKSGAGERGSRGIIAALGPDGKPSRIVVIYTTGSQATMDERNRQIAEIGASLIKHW
Description: as §3

[8] = tested on: P. mirabilis; assay: Synergy with ceftazidime: MIC of ceftazidime at fixed concentration of compound; type: cell-based; conditions: Proteus mirabilis; PMI UFR82; beta-lactamases CMY-2; read-out: MIC of CAZ + compound (4 μg/mL)
Description: (§1) Method 2: MIC of Compounds and Synergy with Ceftazidime Against Bacterial Isolates (Table 2 and 3)
(§2) Compounds of the present invention were assessed against genotyped bacterial strains alone or in combination with the β-lactam ceftazidime. In the assays, MICs of said compounds, or of ceftazidime at fixed concentrations of said compounds were determined by the broth microdilution method according to the Clinical Laboratory Standards Institute (CLSI—M7-A7). Briefly, compounds alone according to the invention were prepared in DMSO and spotted (2 μL each) on sterile polystyrene plates (Corning, 3788). Compounds and ceftazidime dilutions were prepared in DMSO and spotted (1 μL each) on sterile polystyrene plates (Corning, 3788). Log phase bacterial suspensions were adjusted to a final density of 5×10^5 cfu/mL in cation-adjusted Mueller-Hinton broth (Beckton-Dickinson) and added to each well (98 μL). Microplates were incubated for 16-20 h at 35° C. in ambient air. The MIC of the compounds was defined as the lowest concentration of said compounds that prevented bacterial growth as read by visual inspection. The MIC of ceftazidime at each compound concentration was defined as the lowest concentration of ceftazidime that prevented bacterial growth as read by visual inspection.

[9] = tested on: C. freundii; assay: as above; type: cell-based; conditions: Citrobacter freundii; CFR UFR10; beta-lactamases OXA-48; read-out: MIC of CAZ + compound (4 μg/mL)
Description: as §1, §2

[10] = tested on: E. aerogenes; assay: as above; type: cell-based; conditions: Klebsiella aerogenes; EAE 200261; beta-lactamases TEM-x AmpC; read-out: MIC of CAZ + compound (4 μg/mL)
Description: as §1, §2

[11] = tested on: K. pneumoniae; assay: as above; type: cell-based; conditions: Klebsiella pneumoniae
Description: as §1, §2

[12] = tested on: C. murliniae; assay: as above; type: cell-based; conditions: CMU 210102; beta-lactamases VIM-4; read-out: MIC of CAZ + compound (4 μg/mL)
Description: as §1, §2

[13] = tested on: E. cloacae; assay: as above; type: cell-based; conditions: Enterobacter cloacae
Description: as §1, §2

[14] = tested on: P. aeruginosa; assay: as above; type: cell-based; conditions: Pseudomonas aeruginosa, read-out: MIC of CAZ + compound (4 μg/mL)
Description: as §1, §2

[15] = tested on: S. marcescens; assay: as above; type: cell-based; conditions: Serratia marcescens; SMA UFR30; beta-lactamases OXA-405; read-out: MIC of CAZ + compound (4 μg/mL)
Description: as §1, §2

[16] = tested on: M. morganii; assay: as above; type: cell-based; conditions: Morganella morganii, read-out: MIC of CAZ + compound (4 μg/mL)
Description: as §1, §2

[17] = tested on: K. oxytoca; assay: as above; type: cell-based; conditions: Klebsiella oxytoca, read-out: MIC of CAZ + compound (4 μg/mL)
Description: as §1, §2

T1 sequence (Q51574 22-275): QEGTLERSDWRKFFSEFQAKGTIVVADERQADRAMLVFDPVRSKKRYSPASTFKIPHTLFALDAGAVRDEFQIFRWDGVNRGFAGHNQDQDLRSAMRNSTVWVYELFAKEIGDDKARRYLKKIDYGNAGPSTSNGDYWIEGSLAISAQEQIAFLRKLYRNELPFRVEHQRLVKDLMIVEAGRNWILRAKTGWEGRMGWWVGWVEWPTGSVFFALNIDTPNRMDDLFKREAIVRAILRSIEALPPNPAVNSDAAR

`O=C(O)C(F)(F)F.O=C1N2C[C@H](c3scnc3[C@H]2c2ncc[nH]2)N1OS(=O)(=O)[O-].[Na+]` (relative stereo) [Example 1, Sodium and 2,2,2-trifluoroacetate [trans-7-(1H-imidazol-3-ium-2-yl)-9-oxo-3-thia-5,8,10-triaza-tricyclo[6.2.1.0^2,6]undeca-2(6),4-dien-10-yl]sulfate] gave an IC50 [1] of 270 nM, an IC50 [2] of 4.2 nM and an IC50 [3] of 2.7 nM. The IC50 [4] was 8.4 nM, the IC50 [5] was 410 nM and the IC50 [6] was 5.5 nM. For the same molecule, the IC50 [7] was 12 nM, the MIC [8] was at most 0.25 µg/mL and the MIC [9] was under 0.25 µg/mL. For the same molecule, the MIC [10] was under 0.25 µg/mL, the MIC ([11]; BAA1898, read-out: MIC of CAZ + compound (4 μg/mL), KPN BAA-1898, beta-lactamases TEM-1, SHV-11, SHV-12 KPC-2) was 0.5 µg/mL and the MIC ([11]; KPN 700603, beta-lactamases SHV-18 OXA-2, read-out: MIC of CAZ + compound (4 μg/mL)) was under 0.25 µg/mL. For the same molecule, the MIC ([11]; KPN LIB, beta-lactamases SHV-11 OXA-48, read-out: MIC of CAZ + compound (4 μg/mL)) was under 0.25 µg/mL, the MIC ([11]; KPN UFR42, beta-lactamases SHV-2, CTX-M-15 OXA-1 OXA-181 NDM-1, read-out: MIC of CAZ + compound (4 μg/mL)) was under 0.25 µg/mL and the MIC ([11]; KPN UFR43, beta-lactamases SHV-11, CTX-M-15 CMY-2 OXA-1 NDM-1, read-out: MIC of CAZ + compound (4 μg/mL)) was at most 0.25 µg/mL. For the same molecule, the MIC ([11]; KPN UFR77, beta-lactamases CMY-2, read-out: MIC of CAZ + compound (4 μg/mL)) was under 0.25 µg/mL, the MIC ([11]; KPN UFR79, beta-lactamases DHA-1 OXA-1, read-out: MIC of CAZ + compound (4 μg/mL)) was under 0.25 µg/mL and the MIC ([11]; KPN UFR80, beta-lactamases SHV-11 DHA-1 OXA-1, read-out: MIC of CAZ + compound (4 μg/mL)) was under 0.25 µg/mL. It also gave an MIC ([11]; read-out: MIC of CAZ + compound (4 μg/mL), KPN 6299, beta-lactamases TEM-1, SHV-11 OXA-163) of at most 0.125 µg/mL, an MIC ([11]; read-out: MIC of CAZ + compound (4 μg/mL), KPN 260252, beta-lactamases TEM-1, SHV-11 KPC-3) of over 128 µg/mL and an MIC [12] of under 0.25 µg/mL. For the same molecule, the MIC ([13]; ECL 2185D, beta-lactamases OXA-163, read-out: MIC of CAZ + compound (4 μg/mL)) was 1 µg/mL, the MIC ([13]; ECL 190310, beta-lactamases AmpC, read-out: MIC of CAZ + compound (4 μg/mL)) was under 0.25 µg/mL and the MIC ([13]; ECL 200138, beta-lactamases AmpC, read-out: MIC of CAZ + compound (4 μg/mL)) was 8 µg/mL. For the same molecule, the MIC ([13]; ECL 260033, beta-lactamases AmpC, read-out: MIC of CAZ + compound (4 μg/mL)) was 4 µg/mL, the MIC ([13]; ECL 260323, beta-lactamases AmpC, read-out: MIC of CAZ + compound (4 μg/mL)) was under 0.25 µg/mL and the MIC ([13]; ECL HAN, beta-lactamases OXA-35, read-out: MIC of CAZ + compound (4 μg/mL)) was 2 µg/mL. The MIC ([13]; ECL NEM146383, beta-lactamases AmpC, read-out: MIC of CAZ + compound (4 μg/mL)) was under 0.25 µg/mL, the MIC ([13]; ECL P99, beta-lactamases AmpC, read-out: MIC of CAZ + compound (4 μg/mL)) was under 0.25 µg/mL and the MIC ([13]; ECL UFR12, beta-lactamases CTX-M-9 OXA-48, read-out: MIC of CAZ + compound (4 μg/mL)) was under 0.25 µg/mL. It also gave an MIC ([13]; ECL UFR38, beta-lactamases CTX-M-15 NDM-1, read-out: MIC of CAZ + compound (4 μg/mL)) of under 0.25 µg/mL, an MIC ([13]; ECL UFR51, beta-lactamases SHV-12 IMP-8, read-out: MIC of CAZ + compound (4 μg/mL)) of under 0.25 µg/mL and an MIC ([13]; read-out: MIC of CAZ + compound (4 μg/mL), ECL UFR84, beta-lactamases TEM-1 AmpC OXA-1) of at most 0.25 µg/mL. It also gave an MIC ([14]; PAE CIP107051, beta-lactamases TEM-24) of 8 µg/mL, an MIC ([14]; PAE MUS, beta-lactamases OXA-20 OXA-18) of 8 µg/mL and an MIC [15] of under 0.25 µg/mL. The MIC [16] was at most 0.25 µg/mL and the MIC [17] was under 0.25 µg/mL.
